Assay results published in ChEMBL document CHEMBL1129084, “Structure-activity relationships for macrocyclic peptidomimetic inhibitors of HIV-1 protease” (Bioorg Med Chem Lett, 1996).
Starred links: 1 amine or outer side, 2 acyl side, 3 side chain; linkers in the order of their positions; H or OH if unused. Non-standard residues stand in square brackets, D forms with d. Residues, ends and D or L forms follow the SMILES beside them. Phe(ψ(S)CH(OH)CH2N)Pro = O=C([C@@H]1CCCN1C[C@H](O)[C@H](Cc1ccccc1)N[*:1])[*:2]; Pheψ(R-CH(OH)CH2N)Pro = O=C([C@@H]1CCCN1C[C@@H](O)[C@H](Cc1ccccc1)N[*:1])[*:2]

Target: Human immunodeficiency virus type 1 protease (Human immunodeficiency virus 1, UniProt Q72874)

Row | Compound | Ki [µM]
1 | CC[C@@H](C)[C@@H]1NC(=O)[C@@H](NC[C@@H](O)[C@@H]2Cc3ccc(cc3)OCCCCC(=O)N[C@@H](C(C)C)C(=O)N2)Cc2ccc(cc2)OCCCNC1=O | 0.003
2 | CC[C@H](C)[C@H](NC(=O)[C@@H]1CCCN1C[C@@H](O)[C@H]1Cc2ccc(cc2)OCC(=O)NCC(=O)N[C@@H](CC(N)=O)C(=O)N1)C(=O)N[C@H](C(N)=O)C(C)C | 0.2
3 | CC[C@H](C)[C@H](NC(=O)[C@@H]1CCCN1C[C@H](O)[C@H]1Cc2ccc(cc2)OCC(=O)N[C@@H](Cc2ccc(O)cc2)C(=O)N[C@@H](CC(N)=O)C(=O)N1)C(=O)N[C@H](C(N)=O)C(C)C | 0.011
4 | CC[C@H](C)[C@H](NC(=O)[C@@H]1CCCN1C[C@H](O)[C@H]1Cc2ccc(cc2)OCC(=O)NCC(=O)N[C@@H](CC(N)=O)C(=O)N1)C(=O)N[C@H](C(N)=O)C(C)C | 0.011
5 | CC[C@H](C)[C@H](NC(=O)[C@@H]1CCCN1C[C@@H](O)[C@H]1Cc2ccc(cc2)OCC(=O)N[C@@H](Cc2ccc(O)cc2)C(=O)N[C@@H](CC(N)=O)C(=O)N1)C(=O)N[C@H](C(N)=O)C(C)C | 0.165
6 | CC[C@H](C)[C@H](NC(=O)[C@@H]1CCCN1C[C@H](O)[C@@H]1CSSC[C@@H](NC(C)=O)C(=O)NCC(=O)N[C@@H](CC(N)=O)C(=O)N1)C(=O)N[C@H](C(N)=O)C(C)C | 0.25
7 | CC[C@H](C)[C@H](NC(=O)[C@@H]1CCCN1C[C@@H](O)[C@@H]1CSSC[C@@H](NC(C)=O)C(=O)NCC(=O)N[C@@H](CC(N)=O)C(=O)N1)C(=O)N[C@H](C(N)=O)C(C)C | 36
8 | CC[C@H](C)[C@H](NC(=O)[C@@H]1CCCN1C[C@H](O)[C@H]1Cc2ccc(cc2)OCCCCC(=O)NC(CC(N)=O)C(=O)N1)C(=O)N[C@H](C(N)=O)C(C)C (some centres not stated) | 0.008
9 | CC[C@H](C)[C@H](NC(=O)[C@@H]1CCCN1C[C@@H](O)[C@H]1Cc2ccc(cc2)OCCCCC(=O)NC(CC(N)=O)C(=O)N1)C(=O)N[C@H](C(N)=O)C(C)C (some centres not stated) | 0.074
10 | CC[C@H](C)[C@H](NC(=O)[C@@H]1CCCN1C[C@@H](O)[C@H]1Cc2ccc(cc2)OCCCC(=O)NC(CC(N)=O)C(=O)N1)C(N)=O (some centres not stated) | 2.8
11 | CC[C@H](C)[C@H](NC(=O)[C@@H]1CCCN1C[C@H](O)[C@H]1Cc2ccc(cc2)OCCCC(=O)NC(CC(N)=O)C(=O)N1)C(N)=O (some centres not stated) | 0.25
12 | CC(C)[C@@H]1NC(=O)CCCCCOc2ccc(cc2)C[C@H]([C@H](O)CN2CCCC[C@H]2C(=O)NC(C)(C)C)NC1=O | 0.05
13 | CC(C)N(C(=O)[C@@H]1CCCN1C[C@@H](O)[C@H]1Cc2ccc(cc2)OCCCC(=O)NC(CC(N)=O)C(=O)N1)C(C)C (some centres not stated) | 31
14 | CC(C)(C)NC(=O)[C@@H]1CCCN1C[C@H](O)[C@H]1Cc2ccc(cc2)OCCCC(=O)NC(CC(N)=O)C(=O)N1 (some centres not stated) | 0.145
15 | CC(C)(C)NC(=O)[C@@H]1CCCN1C[C@@H](O)[C@H]1Cc2ccc(cc2)OCCCC(=O)NC(CC(N)=O)C(=O)N1 (some centres not stated) | 0.057
16 | CC(C)CN(CC(=O)NC(C)(C)C)C[C@@H](O)[C@H]1Cc2ccc(cc2)OCCCC(=O)N[C@@H](CC(N)=O)C(=O)N1 | 0.25
17 | CC(C)(C)NC(=O)CN(Cc1ccccc1)C[C@@H](O)[C@H]1Cc2ccc(cc2)OCCCC(=O)N[C@@H](CC(N)=O)C(=O)N1 | 0.44
18 | CC(C)(C)NC(=O)CN(Cc1ccccc1)C[C@H](O)[C@H]1Cc2ccc(cc2)OCCCC(=O)N[C@@H](CC(N)=O)C(=O)N1 | 13.6
19 | NC(=O)CC1NC(=O)CCCOc2ccc(cc2)C[C@H]([C@H](O)CN2CCC[C@H]2C(N)=O)NC1=O (some centres not stated) | 16
20 | NC(=O)CC1NC(=O)CCCOc2ccc(cc2)C[C@H]([C@@H](O)CN2CCC[C@H]2C(N)=O)NC1=O (some centres not stated) | 36
21 | CC(C)N(C(=O)[C@@H]1CCCN1C[C@H](O)[C@H]1Cc2ccc(cc2)OCCCC(=O)NC(CC(N)=O)C(=O)N1)C(C)C (some centres not stated) | 86
22 | CC(C)CN(CC(=O)NC(C)(C)C)C[C@H](O)[C@H]1Cc2ccc(cc2)OCCCC(=O)N[C@@H](CC(N)=O)C(=O)N1 | 0.38
23 | CC(C)[C@@H]1NC(=O)CCCCOc2ccc(cc2)C[C@H]([C@H](O)CN2CCCC[C@H]2C(=O)NC(C)(C)C)NC1=O | 0.017
24 | CC[C@H](C)[C@H](NC(=O)[C@@H]1CCCN1C[C@H](O)[C@H](Cc1ccccc1)NC(=O)[C@H](CC(N)=O)NC(=O)[C@H](CC(C)C)NC(C)=O)C(=O)N[C@H](C(N)=O)C(C)C (Ac-LN[Phe(ψ(S)CH(OH)CH2N)Pro]IV-NH2) | 0.003
25 | CC[C@H](C)[C@H](NC(=O)[C@@H]1CCCN1C[C@@H](O)[C@H](Cc1ccccc1)NC(=O)[C@H](CC(N)=O)NC(=O)[C@H](CC(C)C)NC(C)=O)C(=O)N[C@H](C(N)=O)C(C)C (Ac-LN[Pheψ(R-CH(OH)CH2N)Pro]IV-NH2) | 0.018
26 | CC[C@H](C)[C@H](NC(=O)[C@@H]1CCCN1CC(O)[C@H]1Cc2ccc(cc2)OCC(=O)N[C@H](CCC(N)=O)C(=O)N[C@@H](CC(N)=O)C(=O)N1)C(=O)N[C@H](C(N)=O)C(C)C (mixture of isomers) | 0.004
27 | CC(C)(C)NC(=O)[C@H](Cc1ccccc1)NCC(O)[C@@H]1Cc2ccc(cc2)OCCCC(=O)NC(CC(N)=O)C(=O)N1 (mixture of isomers) | 10.3
